Consider 19 molecules from patent US12084472B2 (Ardelyx, Inc., priority 2015, dated 2024).

Each structure is given as a SMILES string.

In the test the target is T1, human TGR5 (Homo sapiens, UniProt Q8TDU6).
T1 construct: expressed in transfected cells; host or cells: HEK293
T1 sequence (Q8TDU6 1-330): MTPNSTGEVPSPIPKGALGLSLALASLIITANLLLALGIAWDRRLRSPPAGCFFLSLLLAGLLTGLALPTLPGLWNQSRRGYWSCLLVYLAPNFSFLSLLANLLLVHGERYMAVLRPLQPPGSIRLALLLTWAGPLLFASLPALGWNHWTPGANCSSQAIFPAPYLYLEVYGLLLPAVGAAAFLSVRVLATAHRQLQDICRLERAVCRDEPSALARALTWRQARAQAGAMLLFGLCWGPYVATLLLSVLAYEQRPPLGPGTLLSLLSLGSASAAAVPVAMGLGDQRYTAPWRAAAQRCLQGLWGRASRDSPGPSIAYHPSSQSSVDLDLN
Kind of test: Cell-based TGR5 assay (cAMP generation, HTRF). Conditions: HEK293 cells stably transfected with human TGR5; cAMP by HTRF; 30 minutes at 37° C.; read-out: pEC50 Human TGR5 (converted). As for the experimental part: A primary cell-based assay utilized HEK293 cells stably transfected with a gene encoding human TGR5. Cells were treated with candidate TGR5 activators and assessed for increased intercellular levels of cAMP.
TGR5-mediated cAMP generation was measured using a homogeneous time resolved fluorescence (HTRF) detection method (Cisbio). Test compounds were dissolved in DMSO to a final concentration of 10 mM. Serial 3-fold dilutions of the stock solution were made in DMSO, and these solutions were diluted 100-fold into Hanks Balanced Salt Solution supplemented with 10 mM HEPES pH 7.4, 0.003% Tween 20 and 0.5 mM isobutyl methylxanthine. Five microliters of diluted test compounds were added to wells of a black 384 well plate.
Cells grown overnight at 37° C./5% CO2 were harvested and resuspended in Hanks Balanced Salt Solution containing 10 mM HEPES to a concentration of […]. Five microliters (2500 cells) were dispensed into each well of the 384 well plate containing compound dilutions and incubated at 37° C. for 30 minutes. Each compound was tested in duplicate at 12 concentrations ranging from 0.05 nM to 10 μM.
Following incubation with test compounds, cAMP was detected through the successive addition of 5 μL each of cAMP labeled with the modified allophyocyanin dye d2 (cAMP-d2) and cryptate-labeled anti-cAMP in lysis buffer, and reading HTRF per the manufacturer's instructions.
A standard curve was used to convert the raw HTRF data into [cAMP]. The concentration of cAMP was plotted against log [test compound] and the resulting curves were fit to a 3-parameter logistical equation using GraphPad Prism to determine pEC50 (the negative log of the EC50) and the magnitude of the response.
In general terms: In TR-FRET formats the signal depends on donor and acceptor labels being close together.
Regarding `CN(CCCCNC(=O)NC[C@H](O)[C@@H](O)[C@H](O)[C@H](O)CO)S(=O)(=O)c1cc(CNC2(c3cnccc3-c3ccccc3OC3CC3)CC2)c(Cl)cc1Cl` [Compound I-392, 1-[4-(N-methyl[2,4-dichloro-5-[([1-[4-(2-cyclopropoxyphenyl)pyridin-3-yl]cyclopropyl]amino)methyl]benzene]sulfonamido)butyl]-3-[(2S,3R,4R,5R)-2,3,4,5,6-pentahydroxyhexyl]urea], the EC50 was under 100 nM.
The figure for `CN(C[C@H](O)[C@@H](O)[C@H](O)[C@H](O)CO)C(=O)c1ccc(CSc2ccc(Cl)c(CNC3(c4cnccc4-c4ccccc4OC4CC4)CC3)c2)cc1` [Compound I-680, 4-[({4-chloro-3-[({1-[4-(2-cyclopropoxyphenyl)pyridin-3-yl]cyclopropyl}amino)methyl]phenyl}sulfanyl)methyl]-N-methyl-N-[(2S,3R,4R,5R)-2,3,4,5,6-pentahydroxyhexyl]benzamide] is 126 to 1000 nM.
As to `O=C(NCCCCCOc1ccc(Cl)c(COC2(c3cnccc3-c3ccccc3OC3CC3)CC2)c1)NC[C@H](O)[C@@H](O)[C@H](O)[C@H](O)CO` [Compound I-726, 1-(5-(4-chloro-3-((1-(4-(2-cyclopropoxyphenyl)pyridin-3-yl)cyclopropoxy)methyl)phenoxy)pentyl)-3-((2S,3R,4R,5R)-2,3,4,5,6-pentahydroxyhexyl)urea], the EC50 was 126 to 1000 nM.
The value for `CS(=O)(=O)CCN(C[C@H](O)[C@@H](O)[C@H](O)[C@H](O)CO)C(=O)CCCCc1cc(Cl)c(COC2(c3cnccc3-c3ccccc3OC3CC3)CC2)cc1Cl` [Compound I-130, 5-[2,5-dichloro-4-({1-[4-(2-cyclopropoxyphenyl)pyridin-3-yl]cyclopropoxy}methyl)phenyl]-N-(2-methanesulfonylethyl)-N-[(2S,3R,4R,5R)-2,3,4,5,6-pentahydroxyhexyl]pentanamide] was under 100 nM.
The figure for `CN(CCCCCSc1ccc(Cl)c(CNC2(c3cnccc3-c3ccccc3OC3CC3)CC2)c1)C(=O)[C@@H](O)[C@@H](O)[C@H](O)[C@@H](O)CO` [Compound I-507, (2S,3S,4R,5S)-N-[5-({4-chloro-3-[({11-[4-(2-cyclopropoxyphenyl)pyridin-3-yl]cyclopropyl}amino)methyl]phenyl}sulfanyl)pentyl]-2,3,4,5,6-pentahydroxy-N-methylhexanamide] is under 100 nM; for `CN(CCCCNC(=O)NC[C@H](O)[C@@H](O)[C@H](O)[C@H](O)CO)S(=O)(=O)c1ccc(Cl)c(CNC2(c3cnccc3-c3ccccc3OC3CC3)CC2)c1` [Compound I-471, 1-(4-{N-methyl4-chloro-3-[({1-[4-(2-cyclopropoxyphenyl)pyridin-3-yl]cyclopropyl}amino)methyl]benzenesulfonamido}butyl)-3-[(2S,3R,4R,5R)-2,3,4,5,6-pentahydroxyhexyl]urea] it is under 100 nM; for `O=C(CN1CCN(C(=O)CCCCc2cc(Cl)c(COC3(c4cnccc4-c4ccccc4OC4CC4)CC3)cc2Cl)CC1)NC[C@H](O)[C@@H](O)[C@H](O)[C@H](O)CO` [Compound I-98, 2-(4-{5-[2,5-dichloro-4-({1-[4-(2-cyclopropoxyphenyl)pyridin-3-yl]cyclopropoxy}methyl)phenyl]pentanoyl}piperazin-1-yl)-N-[(2S,3R,4R,5R)-2,3,4,5,6-pentahydroxyhexyl]acetamide] it is under 100 nM.
For the molecule `Cc1ccc(CCCCC(=O)N(C)C[C@H](O)[C@@H](O)[C@H](O)[C@H](O)CO)cc1COC1(c2cnccc2-c2ccccc2OC2CC2)CC1` (stereo in doubt) [Compound I-236, 5-[3-({1-[4-(2-cyclopropoxyphenyl)pyridin-3-yl]cyclopropoxy}methyl)-4-methylphenyl]-N-methyl-N-[(2S,3R,4R,5R)-2,3,4,5,6-pentahydroxyhexyl]pentanamide], the EC50 is under 100 nM.
The value for `C[C@@H](CCCN)c1ccc(Cl)c(CNC2(c3cnccc3-c3ccccc3OC3CC3)CC2)c1` (single isomer, unassigned) [Compound I-250] was under 100 nM; that for `Cc1ccc(C(C)CCCCNC(=O)[C@@H](O)[C@@H](O)[C@H](O)[C@@H](O)CO)cc1COC1(c2cnccc2-c2ccccc2OC2CC2)CC1` (stereo partly drawn) [Compound I-312, (2S,3S,4R,5S)-N-{5-[3-({1-[4-(2-cyclopropoxyphenyl)pyridin-3-yl]cyclopropoxy}methyl)-4-methylphenyl]hexyl}-2,3,4,5,6-pentahydroxyhexanamide] was under 100 nM; that for `Cc1ccc(Cl)cc1COC1(c2cnccc2-c2ccccc2OC2CC2)CC1` [Compound I-55, 3-{1-[(5-chloro-2-methylphenyl)methoxy]cyclopropyl}-4-(2-cyclopropoxyphenyl)pyridine] was under 100 nM.
The value for `CC(C)N(CCCCNC(=O)NC[C@H](O)[C@@H](O)[C@H](O)[C@H](O)CO)S(=O)(=O)c1cc(COC2(c3cnccc3-c3ccccc3OC3CC3)CC2)c(Cl)cc1F` [Compound I-764, 4-chloro-5-((1-(4-(2-cyclopropoxyphenyl)pyridin-3-yl)cyclopropoxy)methyl)-2-fluoro-N-isopropyl-N-(4-(3-((2S,3R,4R,5R)-2,3,4,5,6-pentahydroxyhexyl)ureido)butyl) benzenesulfonamide] was under 100 nM; that for `Cc1ccc(SCCCN(CCS(C)(=O)=O)C[C@H](O)[C@@H](O)[C@H](O)[C@H](O)CO)cc1COC1(c2cnccc2-c2ccccc2OC2CC2)CC1` [Compound I-614, (2R,3R,4R,5S)-6-[(3-{[3-({1-[4-(2-cyclopropoxyphenyl)pyridin-3-yl]cyclopropoxy}methyl)-4-methylphenyl]sulfanyl}propyl)(2-methanesulfonylethyl)amino]hexane-1,2,3,4,5-pentol] was 126 to 1000 nM.
The value for `Cc1cc(COC2(c3cnccc3-c3ccccc3OC3CC3)CC2)c(Cl)cc1CCCCNC(=O)N(C)C[C@H](O)[C@@H](O)[C@H](O)[C@H](O)CO` [Compound I-167, 1-{4-[5-chloro-4-({1-[4-(2-cyclopropoxyphenyl)pyridin-3-yl]cyclopropoxy}methyl)-2-methylphenyl]butyl}-3-methyl-3-[(2S,3R,4R,5R)-2,3,4,5,6-pentahydroxyhexyl]urea] was under 100 nM; that for `O=C(NCCC1CN(S(=O)(=O)c2ccc(Cl)c(COC3(c4cnccc4-c4ccccc4OC4CC4)CC3)c2)C1)NC[C@H](O)[C@@H](O)[C@H](O)[C@H](O)CO` [Compound I-421, 1-(2-{1-[4-chloro-3-({1-[4-(2-cyclopropoxyphenyl)pyridin-3-yl]cyclopropoxy}methyl)benzenesulfonyl]azetidin-3-yl}ethyl)-3-[(2S,3R,4R,5R)-2,3,4,5,6-pentahydroxyhexyl]urea] was under 100 nM.
On to `CS(=O)(=O)CCCN(CCCSc1ccc(Cl)c(COC2(c3cnccc3-c3ccccc3OC3CC3)CC2)c1)C(=O)[C@@H](O)[C@@H](O)[C@H](O)[C@@H](O)CO` [Compound I-558, (2S,3S,4R,5S)-N-(3-{[4-chloro-3-({1-[4-(2-cyclopropoxyphenyl)pyridin-3-yl]cyclopropoxy}methyl)phenyl]sulfanyl}propyl)-2,3,4,5,6-pentahydroxy-N-(3-methanesulfonylpropyl) hexanamide], for which the EC50 was 126 to 1000 nM.
On to `CN(C[C@H](O)[C@@H](O)[C@H](O)[C@H](O)CO)C(=O)CCCSc1ccc(Cl)c(CNC2(c3cnccc3-c3ccccc3OC3CC3)CC2)c1` [Compound I-650, 4-({4-chloro-3-[({1-[4-(2-cyclopropoxyphenyl)pyridin-3-yl]cyclopropyl}amino)methyl]phenyl}sulfanyl)-N-methyl-N-[(2S,3R,4R,5R)-2,3,4,5,6-pentahydroxyhexyl]butanamide], for which the EC50 was under 100 nM.
The figure for `CCN(CCOCCNC(=O)NC[C@H](O)[C@@H](O)[C@H](O)[C@H](O)CO)S(=O)(=O)c1ccc(Cl)c(COC2(c3cnccc3-c3ccccc3OC3CC3)CC2)c1` [Compound I-411, 1-(2-{2-[N-ethyl4-chloro-3-({1-[4-(2-cyclopropoxyphenyl)pyridin-3-yl]cyclopropoxy}methyl)benzenesulfonamido]ethoxy}ethyl)-3-[(2S,3R,4R,5R)-2,3,4,5,6-pentahydroxyhexyl]urea] is under 100 nM.
The figure for `C[C@@H](O)CN(CCCCc1cc(Cl)c(COC2(c3cnccc3-c3ccccc3OC3CC3)CC2)cc1Cl)C(=O)[C@@H](O)[C@@H](O)[C@H](O)[C@@H](O)CO` [Compound I-214, (2S,3S,4R,5S)-N-{4-[2,5-dichloro-4-({1-[4-(2-cyclopropoxyphenyl)pyridin-3-yl]cyclopropoxy}methyl)phenyl]butyl}-2,3,4,5,6-pentahydroxy-N-[(2R)-2-hydroxypropyl]hexanamide] is under 100 nM.
